ChEMBL document CHEMBL5579835, “Fluorescent octahydrophenazines as novel inhibitors against herpes simplex viruses” (Eur J Med Chem, 2024)
pEC50: −log10 of the molar value. Activity calls are given as the source filed them. The rule behind the calls is not given here.

Experiments:
[1] = system: Human alphaherpesvirus 1; experiment: Antiviral activity against HSV-1 infected in African green monkey Vero cells assessed as reduction in viral growth by measuring relative cell viability at 20 uM incubated for 72 hrs by MTT assay; assay type: functional
[2] = Drug accumulation in African green monkey Vero cells assessed as subcellular localization in endoplasmic reticulum at 20 uM incubated for 1 to 24 hr by Me-THP-Naph staining based confocal scanning laser microscopic analysis; assay type: ADME, cell-based; details: chlorocebus sabaeus, time 1-24 hrs
[3] = Fluorescence property of compound in crystal assessed as fluorescence quantum yield in presence of fluorescein by spectrophotometric analysis; assay type: physicochemical
[4] = Fluorescence property of compound in cyclohexane assessed as fluorescence quantum yield in presence of fluorescein by spectrophotometric analysis; assay type: physicochemical
[5] = Fluorescence property of compound in H2O assessed as fluorescence quantum yield in presence of fluorescein by spectrophotometric analysis; assay type: physicochemical
[6] = Fluorescence property of compound in crystal assessed as maximum emission wavelength in presence of fluorescein by spectrophotometric analysis; assay type: physicochemical
[7] = Fluorescence property of compound in cyclohexane assessed as maximum emission wavelength in presence of fluorescein by spectrophotometric analysis; assay type: physicochemical
[8] = Fluorescence property of compound in H2O assessed as maximum emission wavelength in presence of fluorescein by spectrophotometric analysis; assay type: physicochemical
[9] = system: Human alphaherpesvirus 1; experiment: Antiviral activity against HSV-1 infected in African green monkey Vero cells assessed as reduction in viral growth by measuring relative cell viability at 5 uM incubated for 72 hrs by MTT assay; assay type: functional
[10] = Cytotoxicity against human HEK293T cells assessed as cell viability at 80 uM incubated for 48 hrs by MTT assay relative to control; assay type: toxicity, cell-based, HEK-293T; details: read-out: Activity
[11] = system: Human alphaherpesvirus 1; experiment: Antiviral activity against HSV-1 infected in African green monkey Vero cells assessed as reduction in viral growth incubated for 72 hrs by MTT assay; assay type: functional, organism-based; details: Human alphaherpesvirus 1, Vero
[12] = system: HEK-293T; experiment: Cytotoxicity against human HEK293T cells at 5 to 80 uM incubated for 48 hrs by MTT assay; assay type: toxicity, cell-based; details: dose 5-80 µM
[13] = system: Human alphaherpesvirus 2; experiment: Antiviral activity against HSV-2 infected in African green monkey Vero cells assessed as reduction in viral growth incubated for 72 hrs by MTT assay; assay type: functional, organism-based; details: Human alphaherpesvirus 2, Vero
[14] = system: Human alphaherpesvirus 2; experiment: Antiviral activity against ACV-resistant HSV-2 infected in African green monkey Vero cells assessed as reduction in viral growth incubated for 72 hrs by MTT assay; assay type: functional, organism-based; details: Human alphaherpesvirus 2, Vero
[15] = Cytotoxicity against human HEK293T cells incubated for 48 hrs by MTT assay; assay type: toxicity, cell-based, HEK-293T
[16] = system: Human alphaherpesvirus 1; experiment: Antiviral activity against HSV-1 infected in African green monkey Vero cells assessed as protection of cellular morphology incubated for 24 hrs by CPE based microscopic analysis; assay type: functional, organism-based
[17] = system: Human alphaherpesvirus 2; experiment: Antiviral activity against HSV-2 infected in African green monkey Vero cells assessed as protection of cellular morphology incubated for 24 hrs CPE based microscopic analysis; assay type: functional, organism-based
[18] = system: Human alphaherpesvirus 1; experiment: Antiviral activity against HSV-1 infected in African green monkey Vero cells assessed as downregulation of viral gD mRNA expression incubated for 48 hrs by RT-qPCR analysis; assay type: functional, organism-based
[19] = system: Human alphaherpesvirus 1; experiment: Antiviral activity against HSV-1 infected in African green monkey Vero cells assessed as downregulation of viral VP16 mRNA expression incubated for 48 hrs by RT-qPCR analysis; assay type: functional, organism-based
[20] = system: Human alphaherpesvirus 1; experiment: Antiviral activity against HSV-1 infected in African green monkey Vero cells assessed as downregulation of viral gD protein expression at 10 uM incubated for 48 hrs by Western blotting analysis; assay type: functional, organism-based
[21] = system: Human alphaherpesvirus 2; experiment: Antiviral activity against ACV-resistant HSV-2 infected in African green monkey Vero cells assessed as downregulation of viral gD protein expression at 20 uM incubated for 48 hrs by Western blotting analysis; assay type: functional, organism-based
[22] = system: Human alphaherpesvirus 1; experiment: Antiviral activity against HSV-1 infected in African green monkey Vero cells assessed as downregulation of viral gD mRNA expression at 20 uM pre-treated with compound for 1 hr followed by viral infection by RT-qPCR analysis; assay type: functional, organism-based
[23] = system: Human alphaherpesvirus 1; experiment: Antiviral activity against HSV-1 infected in African green monkey Vero cells assessed as downregulation of viral VP16 mRNA expression at 20 uM pre-treated with compound for 1 hr followed by viral infection by RT-qPCR analysis; assay type: functional, organism-based
[24] = system: Human alphaherpesvirus 1; experiment: Antiviral activity against HSV-1 infected in African green monkey Vero cells assessed as downregulation of viral gD mRNA expression at 20 uM incubated under co-treatment condition for 1 hr by RT-qPCR analysis; assay type: functional, organism-based
[25] = system: Human alphaherpesvirus 1; experiment: Antiviral activity against HSV-1 infected in African green monkey Vero cells assessed as downregulation of viral VP16 mRNA expression at 20 uM incubated under co-treatment condition for 1 hr by RT-qPCR analysis; assay type: functional, organism-based
[26] = system: Human alphaherpesvirus 1; experiment: Antiviral activity against HSV-1 infected in African green monkey Vero cells assessed as downregulation of viral gD mRNA expression at 20 uM pre-infected with virus followed by compound treatment by RT-qPCR analysis; assay type: functional, organism-based
[27] = system: Human alphaherpesvirus 1; experiment: Antiviral activity against HSV-1 infected in African green monkey Vero cells assessed as downregulation of viral VP16 mRNA expression at 20 uM pre-infected with virus followed by compound treatment by RT-qPCR analysis; assay type: functional, organism-based
[28] = system: Human alphaherpesvirus 1; experiment: Antiviral activity against HSV-1 infected in African green monkey Vero cells assessed as downregulation of viral gD mRNA expression at 20 uM incubated under co-plus post treatment condition for 1 hr by RT-qPCR analysis; assay type: functional, organism-based
[29] = system: Human alphaherpesvirus 1; experiment: Antiviral activity against HSV-1 infected in African green monkey Vero cells assessed as downregulation of viral VP16 mRNA expression at 20 uM incubated under co-plus post treatment condition for 1 hr by RT-qPCR analysis; assay type: functional, organism-based
[30] = system: Human alphaherpesvirus 1; experiment: Antiviral activity against HSV-1 infected in African green monkey Vero cells assessed as downregulation of viral gD protein expression at 20 uM pre-treated with compound for 1 hr followed by viral infection by Western blotting analysis; assay type: functional, organism-based
[31] = system: Human alphaherpesvirus 1; experiment: Antiviral activity against HSV-1 infected in African green monkey Vero cells assessed as downregulation of viral ICP8 protein expression at 20 uM pre-treated with compound for 1 hr followed by viral infection by Western blotting analysis; assay type: functional, organism-based
[32] = system: Human alphaherpesvirus 1; experiment: Antiviral activity against HSV-1 infected in African green monkey Vero cells assessed as reduction in viral plaque formation at 20 uM pre-treated with compound for 36 to 48 hrs followed by viral infection by crystal violet staining based assay; assay type: functional, organism-based; details: time 36-48 hrs
[33] = system: Human alphaherpesvirus 1; experiment: Antiviral activity against HSV-1 infected in African green monkey Vero cells assessed as downregulation of viral gD protein expression at 20 uM measured after 2 hrs by Western blotting analysis; assay type: functional, organism-based
[34] = system: Human alphaherpesvirus 1; experiment: Antiviral activity against HSV-1 infected in African green monkey Vero cells assessed as downregulation of viral ICP8 protein expression at 20 uM measured after 2 hrs by Western blotting analysis; assay type: functional, organism-based
[35] = system: Human alphaherpesvirus 1; experiment: Antiviral activity against HSV-1 infected in African green monkey Vero cells assessed as downregulation of viral gD protein expression at 5 to 20 uM by Western blotting analysis; assay type: functional, organism-based; details: dose 5-20 µM
[36] = system: Human alphaherpesvirus 1; experiment: Antiviral activity against HSV-1 infected in African green monkey Vero cells assessed as downregulation of viral gD mRNA expression at 5 to 20 uM by RT-qPCR analysis; assay type: functional, organism-based; details: dose 5-20 µM

## CN(C)c1c(F)c(C#N)c2c(c1C#N)N(C)C1CCCCC1N2C (racemic)
[1]
  Activity: 5%

## CN1CCOc2c(C#N)c3c(c(C#N)c21)N(C)C1CCCCC1N3C (racemic)
[1]
  Activity: 4%

## CN1c2c(C#N)c3c(c(C#N)c2N(C)C2CCCCC21)OCCN3 (racemic)
[1]
  Activity: 1%

## CN1c2c(F)c(C#N)c(C#N)c(F)c2N(C)C2CCCCC21 (racemic)
[1]
  Activity: 3%

## CN1c2c(C#N)c(F)c(N3CCOCC3)c(C#N)c2N(C)C2CCCCC21 (racemic)
[1]
  Activity: 8%

## CN1c2c(C#N)c(F)c(F)c(C#N)c2N(C)[C@@H]2CCCC[C@H]21
[2]
  Drug uptake: Active
[1]
  Activity: 8%
[3]
  Activity: 57.3%
[4]
  Activity: 90.3%
[5]
  Activity: 57.1%
[6]
  Activity: 560 nm
[7]
  Activity: 515 nm
[8]
  Activity: 555 nm

## Nc1nc2c(ncn2COCCO)c(=O)[nH]1 [ACYCLOVIR]
[9]
  Activity: 81%

## CN1c2c(C#N)c3c(c(C#N)c2N(C)C2CCCCC21)OCCO3 (racemic)
[1]
  Activity: 0%

## CN1c2c(C#N)c(F)c(F)c(C#N)c2N(C)C2CCCCC21 (racemic)
[2]
  Drug uptake: Active
[10]
  viability at 48 h, 80 µM: 100%
[1]
  Activity: 39%
[11]
  pEC50: 5.04
[12]
  Activity: Non-Toxic
[13]
  pEC50: 4.96
[14]
  pEC50: 4.83
[15]
  CC50 at 48 h: > 100 µM
[16]
  Activity: Dose-Dependent Effect
[17]
  Activity: Dose-Dependent Effect
[18]
  Activity: Dose-Dependent Effect
[19]
  Activity: Dose-Dependent Effect
[20]
  Activity: Active
[21]
  Activity: Active
[22]
  Activity: inactive
[23]
  Activity: inactive
[24]
  Activity: inactive
[25]
  Activity: Active
[26]
  Activity: Active
[27]
  Activity: Active
[28]
  Activity: Active
[29]
  Activity: Active
[30]
  Activity: Active
[31]
  Activity: Active
[32]
  Activity: Active
[33]
  Activity: Active
[34]
  Activity: Active
[3]
  Activity: 54.4%
[4]
  Activity: 91.6%
[5]
  Activity: 56.2%
[6]
  Activity: 558 nm
[7]
  Activity: 515 nm
[8]
  Activity: 555 nm

## CN1c2c(C#N)c(F)c(N3CCCC3)c(C#N)c2N(C)C2CCCCC21 (racemic)
[1]
  Activity: 9%

## CN1c2c(C#N)c(F)c(F)c(C#N)c2N(C)[C@H]2CCCC[C@@H]21
[2]
  Drug uptake: Active
[1]
  Activity: 40%
[11]
  pEC50: 5.39
[13]
  pEC50: 5.24
[14]
  pEC50: 5.10
[35]
  Activity: Active
[36]
  Activity: Active
[3]
  Activity: 56.9%
[4]
  Activity: 92.3%
[5]
  Activity: 59.1%
[6]
  Activity: 560 nm
[7]
  Activity: 515 nm
[8]
  Activity: 555 nm

## CN1c2c(F)c(C#N)c(F)c(C#N)c2N(C)C2CCCCC21 (racemic)
[1]
  Activity: 0%

## N#Cc1c(F)c(F)c(C#N)c2c1NC1CCCCC1N2 (racemic)
[1]
  Activity: 7%

## CN1c2c(C#N)c(F)c(N3CCCCC3)c(C#N)c2N(C)C2CCCCC21 (racemic)
[1]
  Activity: 6%
